We go through four compounds from patent publication US20110118462A1, “N-HETEROCYCLIC SUBSTITUENT-CONTAINING ANTIBIOTIC, PREPARATION AND USE THEREOF” (priority 2009, published 2011).

Each structure is given as a SMILES string.

Data set [1] has as its system Excrement Enterococcus. Nature of the data set: Vitro bacteriostasis experiment, two-fold agar dilution method. In kind it is cell-based. Here is the method:
(§1) Vitro bacteriostasis experiments of Compounds Ia, Ib, and Ic were performed using the two-fold agar dilution method.

Data set [2] concerns Haemophilus Influenzae. Described as above. In kind it is cell-based. On the procedure:
as §1

Data set [3] concerns Moraxella Catarrhalis. The data set is described as above. In kind it is cell-based. On the procedure:
as §1

Data set [4] relates to Pneumonia Chain Coccus. Described as above. In kind it is cell-based. Here is the method: as §1
The subject of data set [5] is Shigella. The data set is described as above. In kind it is cell-based. Here is the method: as §1
The test system of data set [6] is Type A Chain Coccus. Described as above. In kind it is cell-based. Here is the method: as §1
Data set [7] concerns Type B Chain Coccus. Described as above. In kind it is cell-based. On the procedure:
as §1

Data set [8] is classed as in vivo. The settings on record: for t1/2β: single intravenous administration (Ia 50 mg/kg·bw). Here is the method:
The inventors conducted preliminary pharmacokinetic study of Compound Ia on Beagle dogs. The Beagle dogs were allowed to drink water freely but not to eat food for 16 hours before and 4 hours after the intravenous injection of 50 mg/kg·bw of the compound. Intravenous blood sampling took place at 0, 0.083, 0.17, 0.25, 0.5, 1, 1.5, 2, 3, 4, 6, 9, 12 hours, respectively, after the injection, each blood sample being 3 mL. Thereafter the dogs were given the drugs every other week and blood samples were taken according to the above manner. The blood samples were added to the centrifuge tubes containing heparin and thoroughly mixed by centrifuging at 4000 rpm for 10 minutes. The blood plasma was separated and an abstraction agent (methanol/ethyl acetate 3:2 V/V) was added to and mixed with it by centrifuging at 10000 rpm for 10 minutes. The top, clear liquid, 20 μL, was taken and analyzed by HPLC.

A short description of data set [9]: Acute toxicity tests on rats. In kind it is in vivo. The note with it: intravenous injection.
The subject of data set [10] is Excrement Enterococcus. The data set can be described thus: In-vivo antibacterial activity (protection of rats).
Data set [11] relates to Pneumonia Chain Coccus. The description is as above.
Data set [12] concerns Moraxella Catarrhalis. The data set is described as above.
Data set [13] in a line: Muscle stimulation test on rabbits. The arrangement: species or system New Zealand rabbits. The note with it: rabbit, in vivo. The source says: The inventors have conducted the muscle stimulation test of Compounds Ia and II on rabbits. The test is as follows. Eight New Zealand rabbits were divided into three groups. Two groups, containing three rabbits per group, were administrated with Compound Ia and Compound II, respectively. The third group, containing two rabbits, was used as a negative control group. The rabbits were intramuscularly injected with high concentrations of the compounds into the left quadriceps and with low concentration into the right quadriceps. The negative control group was injected with an equal concentration of sodium chloride into the quadriceps of both sides. Each quadriceps was administrated with 1.0 mL once a day for three consecutive days. One or two rabbits from each group were anatomized after 48 hours of the injection. The remaining rabbits were anatomized after the end of the two-week recovery period.

The nature of data set [14]: Stability in aqueous injection solutions at 37° C. In kind it is physicochemical. The source says: (§2) Compared to Compound II, Compound I has better stability in aqueous solution (see Table 2) and in the solid state (See Table 3). Thus Compound I can be stored without freezing or special treatment.
Data set [15] can be described thus: Stability in the solid state, storage at various temperatures. In kind it is physicochemical.
Text: as §2

The nature of data set [16]: pH value of aqueous solution. In kind it is physicochemical. The settings on record: for pH: concentration 0.1 g/mL. Here is the method: The pH value of its saturated aqueous solution is 3.2.
At 5° C., sodium carbonate (0.1 g) was dissolved in deionized water (5 mL) in a three-neck flask. Compound II (1 g) was added to the flask with agitation (350 rpm) and the reaction was carried out for 45 minutes. The reaction mixture was discolored with activated carbon and then filtered. The filtration liquid was dropwise added to 80 mL of acetone to precipitate. The precipitation was monitored by an on-line particle analyzing instrument. The mixture was filtered and the solid was washed twice with acetone. Drying under vacuum at 40° C. for 24 hours gave 0.75 g of Compound Ia with a purity of 98.35% (HPLC) and pH 7.3 (concentration 0.1 g/mL).

Data set [17] is described as follows: Solubility. In kind it is physicochemical. From the text:
Its chemical name is 7-(α-((N,N-diisopropylamidino)thio)acetylamino)-3-(((1,2,5,6-tetrahydro-2-methyl-5,6-dioxo-1,2,4-triazin-3-yl)thio)methyl) cephalosporanic acid mono sodium salt (Compound Ia).

The mark [18] stands for this setting: healthy Beagle dogs, single intravenous administration 50 mg/kg·bw.

With `CC(C)N(C(=N)SCC(=O)NC1C(=O)N2C(C(=O)[O-])=C(CSc3nc(=O)c(=O)[nH]n3C)CSC12)C(C)C.[Na+]` (stereo not drawn) [Compound Ia, 7-(α-((N,N-diisopropylamidino)thio)acetylamino)-3-(((1,2,5,6-tetrahydro-2-methyl-5,6-dioxo-1,2,4-triazin-3-yl)thio)methyl) cephalosporanic acid mono sodium salt], the MIC90 in data set [1] came out at 8 µg/mL; in data set [2], 0.5 µg/mL; in data set [3], 1 µg/mL; in data set [4] it was 0.125 µg/mL; in [5], 4 µg/mL; in data set [6], 0.5 µg/mL. The same compound yielded an MIC90 in [7] of 0.0625 µg/mL. The AUC (in general, concentration integrated over time) in data set [8] (setting [18]) turned out to be 108.29 ± 18.17 µg·h/mL. For the same compound, the CIB in [8] (setting [18]) was determined as 783 ± 1.5 mL/min/kg. In addition, the V1 in [8] (setting [18]) came to 0.25 ± 0.07 L/kg. In data set [8] (setting [18]), this compound had a VB of 1.61 ± 0.30 L/kg. The t1/2α in [8] (setting [18]) amounted to 37.8 ± 7.2 min. The Cmax – broadly, the highest concentration seen after dosing – in data set [8] (healthy Beagle dogs, single intravenous administration 50 mg/kg·bw, plasma) worked out at 116.35 ± 12.06 µg/mL. Further, the “drug concentration after 12 hours of the administration” value in data set [8] (healthy Beagle dogs, single intravenous administration 50 mg/kg·bw, plasma, 12 hours) turned out to be 0.39 ± 0.09 µg/mL. Moreover, the t1/2β in data set [8] (healthy Beagle dogs) amounted to 155 ± 2.4 min. Moreover, the LD50 (as a rule, the dose expected to kill half of the subjects tested) in data set [9] worked out at 1747.6 mg/kg. Besides, the “protection for rats against Excrement Enterococcus” value in data set [10] is on record as “excellent protection”. In addition, in [11], the “protection for rats against Pneumonia Chain Coccus” value is on record as “excellent protection”. Also, in [12], the “protection for rats against Moraxella Catarrhalis” value is listed as “excellent protection”. Besides, in data set [13], the muscle irritation observed result is “slight irritation”. For the same compound, the “content in aqueous injection solution” value is listed as 98.60% in [14] (0 hr); 98.60% in [14] (0.2 hr); 97.98% in [14] (1 hr); 97.79% in data set [14] (2 hr); 97.24% in data set [14] (3 hr); 97.13% in data set [14] (4 hr). In addition, the “content after 72 hours in storage” value in [15] (10° C.) was 96.9%; in data set [15] (40° C.), 96.6%; in data set [15] (60° C.), 96.4%; in data set [15] (−5° C.), 97.0%. The compound also displayed a pH in data set [16] of 7.3. In [16] (concentration not given), this compound yielded a pH value of 7.3. For the same compound, the solubility in acetone result in [17] is reported as “not readily soluble”. For the same compound, the “solubility in anhydrous ethanol” value in data set [17] is given as “not readily soluble”. The solubility in methanol result in data set [17] is “readily soluble”. Besides, the solubility in water entry in data set [17] is reported as “readily soluble”.

As to `CC(C)N=C(NC(C)C)SCC(=O)NC1C(=O)N2C(C(=O)[O-])=C(CSc3nc(=O)c(=O)[nH]n3C)CSC12.CC(C)N=C(NC(C)C)SCC(=O)NC1C(=O)N2C(C(=O)[O-])=C(CSc3nc(=O)c(=O)[nH]n3C)CSC12.[Na+].[Na+]` (stereo not drawn) [Compound Ib, disodium 7-(α-((N,N′-diisopropylamidino)thio)acetylamino)-3-(((1,2,5,6-tetrahydro-2-methyl-5,6-dioxo-1,2,4-triazin-3-yl)thio)methyl) cephalosporanate], the MIC90 in data set [1] came out at 4 µg/mL; in data set [2] it was 0.5 µg/mL; in data set [3], 0.5 µg/mL; in data set [4] it was 0.5 µg/mL; in [5], 4 µg/mL; in [6], 0.1 µg/mL. The compound further showed an MIC90 in data set [7] of 0.0125 µg/mL. The “content in aqueous injection solution” value in data set [14] (0 hr) is reported as 98.80%; in [14] (0.2 hr) it was 98.54%; in [14] (1 hr), 97.14%; in [14] (2 hr), 96.66%; in data set [14] (3 hr) it was 95.21%; in [14] (4 hr), 94.30%. In data set [16], the pH was 10.02.

Consider `CC(C)N(C(=N)SCC(=O)NC1C(=O)N2C(C(=O)[O-])=C(CSc3nc(=O)c(=O)[nH]n3C)CSC12)C(C)C.[K+]` (stereo not drawn) [Compound Ic, 7-(α-((N,N-diisopropylamidino)thio)acetylamino)-3-(((1,2,5,6-tetrahydro-2-methyl-5,6-dioxo-1,2,4-triazin-3-yl)thio)methyl) cephalosporanic acid monopotassium salt], for which the MIC90 in data set [1] worked out at 8 µg/mL; in data set [2], 0.5 µg/mL; in data set [3] it was 0.5 µg/mL; in data set [4], 0.5 µg/mL; in data set [5], 4 µg/mL; in [6], 0.1 µg/mL. Besides, in [7], the MIC90 turned out to be 0.0156 µg/mL.

Consider `CC(=O)OCC1=C(C(=O)O)N2C(=O)[C@@H](NC(=O)CSC(=NC(C)C)NC(C)C)[C@H]2SC1` [cefathiamidine, reference compound], for which the “biological half-life in blood” value in [8] (Beagle dogs, preliminary pharmacokinetic study) amounted to 0.65 hours. The same compound yielded a t1/2β in [8] (healthy Beagle dogs) of 39 ± 1.8 min. The LD50 in [9] worked out at 824.2 mg/kg.
